Data set [1] concerns PHA-stimulated PBMCs. Put plainly: Cytotoxicity, CellTiter Glo. It is filed as cell-based. To be noted: Homo sapiens, PBMC, 72 h, 3 days of treatment, read-out: IC50 (50% reduction in cell viability). The method, then:
(§1) The evaluation of the off-target effects of NV651 was performed by ImQuest BioSciences Inc. (Frederick, MD, USA) by analyzing the cytotoxicity in a panel of primary cells. NV651 was evaluated at a concentration of 30 µM and five serial half-logarithmic dilutions in triplicate. The positive control compounds for each cell type were purchased from Sigma-Aldrich (St. Louis, MO, USA) and were as follows:
(§2) Human unstimulated or PHA-P-stimulated PBMCs were isolated by Ficoll hypaque centrifugation from whole blood and resuspended in a fresh tissue culture medium containing IL-2. Cells were seeded at a concentration of 5 × 10^5 /mL in a 96-well plate followed by NV651 treatment in triplicate for 3 days. Cell viability was measured with CellTiter Glo (Promega, Madison, WI, USA).
(§3) CellTiter Glo was performed to evaluate cell viability. CellTiter Glo Luminescent Cell Viability Assay (Promega, Madison, WI, USA) was performed according to the manufacturer’s instructions.

In data set [2] the test system is Unstimulated PBMCs. As to the kind of experiment: Cytotoxicity, CellTiter Glo. The data set is classed as cell-based. Particulars: Homo sapiens, PBMC, 72 h, 3 days of treatment, read-out: IC50 (50% reduction in cell viability). The method, then: as §1, §2, §3
For data set [3], the system named is iPS cardiomyocytes. Put plainly: Cytotoxicity, CellTiter Glo. It is filed as cell-based. To be noted: Homo sapiens, Cardiomyocyte, 72 h, 3 days of treatment, read-out: IC50 (50% reduction in cell viability). The method, then: The evaluation of the off-target effects of NV651 was performed by ImQuest BioSciences Inc. (Frederick, MD, USA) by analyzing the cytotoxicity in a panel of primary cells. NV651 was evaluated at a concentration of 30 µM and five serial half-logarithmic dilutions in triplicate. The positive control compounds for each cell type were purchased from Sigma-Aldrich (St. Louis, MO, USA) and were as follows: Unstimulated human peripheral blood mononuclear cells (PBMCs), phytohemagglutinin (PHA)-stimulated PBMCs, monocytes/macrophages, dendritic cells, hepatocytes, induced pluripotent stem cell (iPS) neurons: […] AZT, kidney cells (RPTEC): cisplatin and iPS cardiomyocytes: Doxazosin. iPS cardiomyocytes (Cellular Dynamics, Madison, WI, USA) were seeded in a 96-well plate precoated with 0.1% gelatin (Sigma-Aldrich, St. Louis, MO, USA) in a plating medium (Cellular dynamics, Madison, WI, USA) at a concentration of 1.5 × 10^4 cells/well. After 48 h of incubation, cells were washed, and NV651 diluted in the maintenance medium (Cellular Dynamics, Madison, WI, USA) was added. After 3 days of incubation, cell viability was measured with CellTiter Glo (Promega, Madison, WI, USA). CellTiter Glo was performed to evaluate cell viability. CellTiter Glo Luminescent Cell Viability Assay (Promega, Madison, WI, USA) was performed according to the manufacturer’s instructions.

Data set [4] deals with RPTECs. Put plainly: Cytotoxicity, CellTiter Glo. It is filed as cell-based, human. Particulars: Homo sapiens, RPTEC, 72 h, 3 days of treatment, read-out: IC50 (50% reduction in cell viability). The method, then:
The evaluation of the off-target effects of NV651 was performed by ImQuest BioSciences Inc. (Frederick, MD, USA) by analyzing the cytotoxicity in a panel of primary cells. NV651 was evaluated at a concentration of 30 µM and five serial half-logarithmic dilutions in triplicate. The positive control compounds for each cell type were purchased from Sigma-Aldrich (St. Louis, MO, USA) and were as follows: Unstimulated human peripheral blood mononuclear cells (PBMCs), phytohemagglutinin (PHA)-stimulated PBMCs, monocytes/macrophages, dendritic cells, hepatocytes, induced pluripotent stem cell (iPS) neurons: […] AZT, kidney cells (RPTEC): cisplatin and iPS cardiomyocytes: Doxazosin. Human primary renal proximal tubule cells (hRPTEC, Lonza, Basel, Switzerland) were cultured at 1 × 10^4 cells/well in supplemented REGM medium (Lonza, Basel, Switzerland). Following overnight incubation for adherence, cells were treated with NV651 in triplicate. After a 3-day treatment, CellTiter Glo (Promega, Madison, WI, USA) was used. CellTiter Glo was performed to evaluate cell viability. CellTiter Glo Luminescent Cell Viability Assay (Promega, Madison, WI, USA) was performed according to the manufacturer’s instructions.

The subject of data set [5] is primary human hepatocytes. As to the kind of experiment: Cell health parameters by fluorescent imaging (ArrayScan). It is filed as cell-based. Particulars: for AC50: Hepatocyte. As to the method:
This experiment was performed in Cyprotex (Watertown, MA, USA). Cryopreserved Primary human hepatocytes plated on 384 black-well plate cells were dosed with NV651 at a range of concentrations (0.195, 0.391, 0.781, 1.56, 3.13, 6.25, 12.5, 25, 50 and 100 µM). At the end of the incubation period (24 or 48 h), several health parameters were analyzed to evaluate the potential cytotoxicity of NV651 in primary human hepatocytes, including the total cell count with Hoechst staining and PI subtraction (a nonpermeable dye to quantify dead cells), nuclear intensity, Glutathione content (GSH), mitochondrial membrane potential, reactive oxygen species (ROS), steatosis, nuclear size and DNA structure. Plates were then scanned using an automated fluorescent cellular imager, ArrayScan (Thermo Scientific Cellomics).

We go through one compound from publication PMC8234462, “Novel Cyclophilin Inhibitor Decreases Cell Proliferation and Tumor Growth in Models of Hepatocellular Carcinoma” (Cancers, 2021).

Read-outs that look alike come from different tables or passages of the source. Bounds are passed on as bounds.

For `CC(=O)CCC1C(=O)NC(C(C)C)C(=O)NC(Cc2cc(O)cc(F)c2)C(=O)N2CCCC(N2)C(=O)OC(C(C)=CC=CC(=O)OC(C)(C)C)CC=CC=CC(O)C(C)C1O` (centres unmarked) [NV651], the IC50 in data set [1] is above 30 µM; in data set [2], above 30 µM; in data set [3], above 30 µM; in data set [4] it was 20.9 µM. The “MEC, Glutathione content” value in data set [5] (24 h) is reported as 2.62 µM. In data set [5] (24 h), the “MEC, Mitochondrial Membrane potential” value is reported as 12.40 µM. In addition, the “MEC, Nuclear intensity” value in data set [5] (24 h) worked out at 8.90 µM. In addition, in data set [5] (24 h), the “MEC, ROS” value was determined as 6.43 µM. In data set [5] (48 h), the “MEC, Cell count (PI corrected)” value came to 6.14 µM. Further, in data set [5] (48 h), the “MEC, DNA structure” value was 10.90 µM. The “MEC, Nuclear size” value in data set [5] (48 h) turned out to be 18.10 µM. For the same compound, the “MEC, Steatosis” value in data set [5] (48 h) is given as 6.81 µM. Also, the concentration at half-maximal activity (AC50) came to 10.9 µM in data set [5] (24 h, read-out: AC50, Glutathione content); 14.2 µM in data set [5] (24 h, read-out: AC50, Mitochondrial Membrane potential); 8.94 µM in data set [5] (24 h, read-out: AC50, Nuclear intensity); 8.17 µM in data set [5] (24 h, read-out: AC50, ROS); 13.9 µM in data set [5] (48 h, read-out: AC50, Cell count (PI corrected)); 34.4 µM in data set [5] (48 h, read-out: AC50, DNA structure). The AC50 was found to be 21.5 µM in data set [5] (48 h, read-out: AC50, Nuclear size) and 39 µM in data set [5] (48 h, read-out: AC50, Steatosis).
